The values that follow come from the NIST ThermoML archive (doi:10.1016/j.jct.2016.08.033).

The mass density is mass per unit of volume. As usually defined, the refractive index is the speed of light in vacuum divided by its phase velocity in the sample.

Structures are written as SMILES. Numbers after ± are expanded uncertainties.

The conditions of series [1]: 303.15 K; 101.33 kPa; Liquid; Vibrating tube method.
The nature of series [2]: refractive index (Na D-line) (dimensionless). The following applies: 303.15 K; 101.33 kPa; Liquid; Standard Abbe refractometry.

As to `CCCC(=O)OC(C)CCC` (configuration not stated) [1-methylbutyl butanoate], the mass density in series [1] worked out at 849.19 ± 1 kg/m3. Moreover, the refractive index in series [2] turned out to be 1.40283 ± 0.0011.

Turning to `CCCC(=O)O` [butanoic acid], the mass density in series [1] is 948.44 ± 1 kg/m3. The refractive index in series [2] was 1.39394 ± 0.0011.

Turning to `CCCCCC[n+]1ccn(C)c1.O=S(=O)([N-]S(=O)(=O)C(F)(F)F)C(F)(F)F`, the mass density in series [1] stood at 1367.17 ± 1.1 kg/m3. For the same compound, in series [2], the refractive index worked out at 1.42851 ± 0.0011.

Regarding `CCn1cc[n+](C)c1.O=S(=O)([N-]S(=O)(=O)C(F)(F)F)C(F)(F)F`, the mass density in series [1] is listed as 1513.74 ± 1.2 kg/m3. In addition, the refractive index in series [2] was 1.42162 ± 0.0011.

As for `C=COC(=O)CCC` [vinyl butanoate], in series [1], the mass density came out at 888.65 ± 1 kg/m3. Besides, the refractive index in series [2] turned out to be 1.40494 ± 0.0011.

Take `CCCC(C)O` (configuration not stated) [pentan-2-ol]: in series [1], the mass density is given as 800.09 ± 2.1 kg/m3. In series [2], the refractive index is on record as 1.40216 ± 0.0021.
